Data: article PMC5571044 (Scientific Reports, 2017)

What was measured:
[1] = tested on: FluA Udorn replicon with PB2 N510T; assay type: cell-based, influenza A/H3N2/Udorn/72 in 293 T cells
PB2long N510T mutant = assay type: binding, influenza A/Udorn/307/1972(H3N2)

With O=C(O)[C@H]1C2CCC(CC2)[C@@H]1Nc1nc(-c2c[nH]c3ncc(F)cc23)ncc1F [VX-787] the “fold loss of cellular EC50, N510T vs WT replicon” value [1] was 90 fold and the “KD fold change, PB2long N510T” value (PB2long N510T mutant) was 90 fold.
